target: T1, human SSTR5 (Homo sapiens, UniProt P35346); experiment: Inositol phosphate accumulation assay (IP1 HTRF, antagonist mode); assay type: cell-based; conditions: CHO-K1 cells co-expressing human SSTR5 with Gqi5, SST28 agonist at concentration generating 90% of full activation
T1 construct: expressed in transfected cells
Summary of the method: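 CHO-K1 cells stably co-expressing human SSTR5 and chimeric Gqi5 were pre-incubated with compound 15 minutes at 37° C, then stimulated with SST28 (30 nM as added, about EC90) for 90 minutes. IP1 read by HTRF (665/620 nm). % inhibition normalized to Max/Min controls; IC50 and maximal inhibition from 4-parameter fit.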

T1 sequence (P35346 whole entry): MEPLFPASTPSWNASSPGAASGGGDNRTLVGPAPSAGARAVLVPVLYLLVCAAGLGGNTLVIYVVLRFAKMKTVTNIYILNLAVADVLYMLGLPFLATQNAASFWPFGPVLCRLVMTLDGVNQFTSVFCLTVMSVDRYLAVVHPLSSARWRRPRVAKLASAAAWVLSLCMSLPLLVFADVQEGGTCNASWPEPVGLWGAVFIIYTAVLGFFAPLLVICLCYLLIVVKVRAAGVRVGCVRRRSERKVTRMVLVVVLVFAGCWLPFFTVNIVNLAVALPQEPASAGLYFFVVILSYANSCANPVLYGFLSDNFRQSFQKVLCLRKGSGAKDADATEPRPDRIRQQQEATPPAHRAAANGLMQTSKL

Compound | IC50 [nM]
CCOc1cc(C(=O)OC)c(C2CC2)cc1CN1CCC2(CC1)CC(=O)N(c1ccc(C(=O)N3CC(CO)(CO)C3)cc1)C2 [Example 42, methyl 4-((2-(4-(3,3-bis(hydroxymethyl)azetidine-1-carbonyl)phenyl)-3-oxo-2,8-diazaspiro[4.5]decan-8-yl)methyl)-2-cyclopropyl-5-ethoxybenzoate] | 1000 to 5000
CCOc1cc(C(=O)OC)c(C2CC2)cc1CN1CCC2(CC1)CC(=O)N(c1ccc(C(=O)NCCOCCOCCO)cc1)C2 [Example 49, methyl 2-cyclopropyl-5-ethoxy-4-((2-(4-((2-(2-(2-hydroxyethoxy)ethoxy)ethyl)carbamoyl)phenyl)-3-oxo-2,8-diazaspiro[4.5]decan-8-yl)methyl)benzoate] | 100 to 1000
CCOc1cc(C(=O)OC)c(C2CC2)cc1CN1CCC2(CC1)CN(c1ccc(C(=O)NCCOCCO)cc1)C(=O)N2 [Example 76, methyl 2-cyclopropyl-5-ethoxy-4-((3-(4-((2-(2-hydroxyethoxy)ethyl)carbamoyl)phenyl)-2-oxo-1,3,8-triazaspiro[4.5]decan-8-yl)methyl)benzoate] | 100 to 1000
CCOc1cc(-c2ccc(F)cc2)c(C2CC2)cc1CN1CCC2(CC1)CN(c1ccc(C(=O)NCCOCCO)cc1)C(=O)N2 [compound 65, 4-(8-((2-cyclopropyl-5-ethoxy-4′-fluoro-[1,1′-biphenyl]-4-yl)methyl)-2-oxo-1,3,8-triazaspiro[4.5]decan-3-yl)-N-(2-(2-hydroxyethoxy)ethyl)benzamide] | ≤ 100
CCOc1cc(-c2ccc(F)cc2)c(C2CC2)cc1CN1CCC2(CC1)CN(c1ccc(C(=O)NCCOCCOCCO)cc1)C(=O)N2 [Example 70, 4-(8-((2-cyclopropyl-5-ethoxy-4′-fluoro-[1,1′-biphenyl]-4-yl)methyl)-2-oxo-1,3,8-triazaspiro[4.5]decan-3-yl)-N-(2-(2-(2-hydroxyethoxy)ethoxy)ethyl)benzamide] | ≤ 100
CCOc1cc(CN2CCC3(CC2)CN(c2ccc(C(=O)N4CC(C(=O)NCCC[N+](C)(C)C)C4)cc2)C(=O)O3)cc(OCC)c1-c1ccc(F)cc1 [Example 8, 3-(1-(4-(8-((2,6-diethoxy-4′-fluoro-[1,1′-biphenyl]-4-yl)methyl)-2-oxo-1-oxa-3,8-diazaspiro[4.5]decan-3-yl)benzoyl)azetidine-3-carboxamido)-N,N,N-trimethylpropan-1-aminium] | 1000 to 5000
CCOc1cc(CN2CCC3(CC2)CN(c2ccc(C(=O)NCCCCS(=O)(=O)O)cc2)C(=O)O3)cc(OCC)c1-c1ccc(F)cc1 [Example 10, 4-(4-(8-((2,6-diethoxy-4′-fluoro-[1,1′-biphenyl]-4-yl)methyl)-2-oxo-1-oxa-3,8-diazaspiro[4.5]decan-3-yl)benzamido)butane-1-sulfonic acid] | ≤ 100
CCOc1cc(C(=O)OC)c(C2CC2)cc1CN1CCC2(CC1)CC(=O)N(c1ccc(C(=O)N3CCC(CS(N)(=O)=O)CC3)cc1)C2 [Example 53, methyl 2-cyclopropyl-5-ethoxy-4-((3-oxo-2-(4-(4-(sulfamoylmethyl)piperidine-1-carbonyl)phenyl)-2,8-diazaspiro[4.5]decan-8-yl)methyl)benzoate] | 100 to 1000
CCOc1cc(C(=O)OC)c(C2CC2)cc1CN1CCC2(CC1)CN(c1ccc(C(=O)NCCCS(N)(=O)=O)cc1)C(=O)N2 [Example 79, methyl 2-cyclopropyl-5-ethoxy-4-((2-oxo-3-(4-((3-sulfamoylpropyl)carbamoyl)phenyl)-1,3,8-triazaspiro[4.5]decan-8-yl)methyl)benzoate] | 100 to 1000
CCOc1cc(C(=O)OC)c(C2CC2)cc1CN1CCC2(CC1)CC(=O)N(c1ccc(C(=O)NC[C@@H](O)CO)cc1)C2 [Example 36, methyl (R)-2-cyclopropyl-4-((2-(4-((2,3-dihydroxypropyl)carbamoyl)phenyl)-3-oxo-2,8-diazaspiro[4.5]decan-8-yl)methyl)-5-ethoxybenzoate] | 100 to 1000
CCOc1cc(C(=O)OC)c(C2CC2)cc1CN1CCC2(CC1)CC(=O)N(c1ccc(C(=O)NCC[N+](C)(C)C)cc1)C2 [Example 22, 2-(4-(8-(5-cyclopropyl-2-ethoxy-4-(methoxycarbonyl)benzyl)-3-oxo-2,8-diazaspiro[4.5]decan-2-yl)benzamido)-N,N,N-trimethylethan-1-aminium] | 1000 to 5000
CCOc1cc(C(=O)OC)c(C2CC2)cc1CN1CCC2(CC1)CC(=O)N(c1ccc(C(=O)NCCCCP(=O)(O)O)cc1)C2 [Example 47, (4-(4-(8-(5-cyclopropyl-2-ethoxy-4-(methoxycarbonyl)benzyl)-3-oxo-2,8-diazaspiro[4.5]decan-2-yl)benzamido)butyl)phosphonic acid] | 100 to 1000
CCOc1cc(CN2CCC3(CC2)CN(c2ccc(C(=O)NC[C@H](O)[C@@H](O)[C@H](O)[C@H](O)CO)cc2)C(=O)O3)cc(CO)c1-c1ccc(F)cc1 [Example 3, 4-(8-((2-ethoxy-4′-fluoro-6-(hydroxymethyl)-[1,1′-biphenyl]-4-yl)methyl)-2-oxo-1-oxa-3,8-diazaspiro[4.5]decan-3-yl)-N-((2S,3R,4R,5R)-2,3,4,5,6-pentahydroxyhexyl)benzamide] | > 5000
CCOc1cc(CN2CCC3(CC2)CN(c2ccc(C(=O)NCCNC(=O)NC(CO)(CO)CO)cc2)C(=O)O3)cc(OCC)c1-c1ccc(F)cc1 [Example 7, 4-(8-((2,6-diethoxy-4′-fluoro-[1,1′-biphenyl]-4-yl)methyl)-2-oxo-1-oxa-3,8-diazaspiro[4.5]decan-3-yl)-N-(2-(3-(1,3-dihydroxy-2-(hydroxymethyl)propan-2-yl)ureido)ethyl)benzamide] | ≤ 100
CCOc1cc(C(=O)OC)c(C2CC2)cc1CN1CCC2(CC1)CN(c1ccc(C(=O)NCCCNC(N)=O)cc1)C(=O)O2 [Example 57, methyl 2-cyclopropyl-5-ethoxy-4-((2-oxo-3-(4-((3-ureidopropyl)carbamoyl)phenyl)-1-oxa-3,8-diazaspiro [4.5]decan-8-yl)methyl)benzoate] | ≤ 100
CCOc1cc(C(=O)OC)c(C2CC2)cc1CN1CCC2(CC1)CC(=O)N(c1ccc(C(=O)NCCCCS(=O)(=O)O)cc1)C2 [Example 31, 4-(4-(8-(5-cyclopropyl-2-ethoxy-4-(methoxycarbonyl)benzyl)-3-oxo-2,8-diazaspiro[4.5]decan-2-yl)benzamido)butane-1-sulfonic acid] | > 5000
CCOc1cc(-c2nc(C)no2)c(C2CC2)cc1CN1CCC2(CC1)CN(c1ccc(C(=O)NCCCS(=O)(=O)O)cc1)C(=O)N2 [Example 68, 3-(4-(8-(5-cyclopropyl-2-ethoxy-4-(3-methyl-1,2,4-oxadiazol-5-yl)benzyl)-2-oxo-1,3,8-triazaspiro[4.5]decan-3-yl)benzamido)propane-1-sulfonic acid] | 100 to 1000

The next lines start with the values.

IC50 [nM] | Compound
> 5000 | CCOc1cc(C(=O)OC)c(C2CC2)cc1CN1CCC2(CC1)CC(=O)N(c1ccc(C(=O)N(C)CCCC(=O)O)cc1)C2 [Example 41, 4-(4-(8-(5-cyclopropyl-2-ethoxy-4-(methoxycarbonyl)benzyl)-3-oxo-2,8-diazaspiro[4.5]decan-2-yl)-N-methylbenzamido)butanoic acid]
≤ 100 | CCOc1cc(-c2ccc(F)cc2)c(C2CC2)cc1CN1CCC2(CC1)CN(c1ccc(C(=O)NCCCS(N)(=O)=O)cc1)C(=O)O2 [Example 64, 4-(8-((2-cyclopropyl-5-ethoxy-4′-fluoro-[1,1′-biphenyl]-4-yl)methyl)-2-oxo-1-oxa-3,8-diazaspiro[4.5]decan-3-yl)-N-(3-sulfamoylpropyl)benzamide]
> 5000 | CCOc1cc(C(=O)OC)c(C2CC2)cc1CN1CCC2(CC1)CC(=O)N(c1ccc(C(=O)NCCCN)cc1)C2 [Example 46, methyl 4-((2-(4-((3-aminopropyl)carbamoyl)phenyl)-3-oxo-2,8-diazaspiro[4.5]decan-8-yl)methyl)-2-cyclopropyl-5-ethoxybenzoate]
100 to 1000 | CCOc1cc(C(=O)OC)c(C2CC2)cc1CN1CCC2(CC1)CC(=O)N(c1ccc(C(=O)NCCNC(N)=O)cc1)C2 [Example 38, methyl 2-cyclopropyl-5-ethoxy-4-((3-oxo-2-(4-((2-ureidoethyl)carbamoyl)phenyl)-2,8-diazaspiro[4.5]decan-8-yl)methyl)benzoate]
100 to 1000 | CCOc1cc(-c2ccc(F)cn2)c(C2CC2)cc1CN1CCC2(CC1)CN([C@H]1CC[C@@](C)(C(=O)NCCCS(=O)(=O)O)CC1)C(=O)O2 [compound 88]
≤ 100 | CCOc1cc(-c2ccc(F)cn2)c(C2CC2)cc1CN1CCC2(CC1)CN(c1ccc(C(=O)NCCOCCO)cc1)C(=O)N2 [Example 74, 4-(8-(5-cyclopropyl-2-ethoxy-4-(5-fluoropyridin-2-yl)benzyl)-2-oxo-1,3,8-triazaspiro[4.5]decan-3-yl)-N-(2-(2-hydroxyethoxy)ethyl)benzamide]
≤ 100 | CCOc1cc(S(C)(=O)=O)c(C2CC2)cc1CN1CCC2(CC1)CN(c1ccc(S(=O)(=O)N(Cc3ccc(OC)cc3)Cc3ccc(OC)cc3)cc1)C(=O)N2 [compound 86, 4-[8-[(5-cyclopropyl-2-ethoxy-4-methylsulfonyl-phenyl)methyl]-2-oxo-1,3,8-triazaspiro[4.5]decan-3-yl]-N,N-bis[(4-methoxyphenyl)methyl]benzenesulfonamide]
≤ 100 | CCOc1cc(CN2CCC3(CC2)CN(c2ccc(C(=O)NCCCS(=O)(=O)O)cc2)C(=O)O3)cc(OCC)c1-c1ccc(F)cc1 [Example 11, 3-(4-(8-((2,6-diethoxy-4′-fluoro-[1,1′-biphenyl]-4-yl)methyl)-2-oxo-1-oxa-3,8-diazaspiro[4.5]decan-3-yl)benzamido)propane-1-sulfonic acid]
≤ 100 | CCOc1cc(C(=O)OC)c(C2CC2)cc1CN1CCC2(CC1)CC(=O)N(c1ccc(C(=O)NCCO)cc1)C2 [Example 20, methyl 2-cyclopropyl-5-ethoxy-4-((2-(4-((2-hydroxyethyl)carbamoyl)phenyl)-3-oxo-2,8-diazaspiro[4.5]decan-8-yl)methyl)benzoate]

From patent US20230113609A1, “SSTR5 ANTAGONISTS” (Kallyope, Inc., priority 2019, published 2023)
